Assay results as given in US20190175528A1, “INHIBITION OF BIOFILM ORGANISMS” (NovaBiotics Limited, priority 2009, published 2019).
Read-outs that look alike come from different tables or passages of the source.

Legend:
[1] = system: S. aureus DSM 11729 (MRSA); assay: microbe, parasite or virus in culture; assay type: cell-based, Staphylococcus aureus
Description: (§1) The bacterial inoculum was established by the dilution method from actively-growing cultures in Mueller-Hinton broth, standardized with 0.5 McFarland turbidity standard as described in the CLSI method M26-A.
(§2) To determine the prevention of biofilm formation, both the bacterial inoculum and the antimicrobial agents were added simultaneously to the plates. The plates were incubated at 37° C. for 24 h and the optical density was read at 625 nm on a microtitre plate reader (BioTek Powerwave XS, Winooski, USA). The MIC was obtained as the lowest concentration of antimicrobial showing total inhibition of bacterial growth. […]
(§3) FIC=MICA[combination]/MICA[alone]+MICB[combination]/MICB[alone] […]
(§4) In order to assess for the prevention of biofilm formation by both Gram-positive and Gram-negative bacteria, the bacterial inoculum and antimicrobial agents were added simultaneously in the plates. The range of concentrations of antimicrobial agents was 0-500 μg/ml NP108 and 0-320 μg/ml cysteamine against the Gram-negative bacteria P. aeruginosa ATCC BAA-47 and 0-1000 μg/ml NP108 and 0-320 μg/ml cysteamine against the Gram-positive MRSA.

[2] = system: P. aeruginosa ATCC BAA-47; assay: microbe, parasite or virus in culture; assay type: cell-based, Pseudomonas aeruginosa
Description: as §1, §2, §3, §4

[3] = system: P. aeruginosa strains (7); assay: microbe, parasite or virus in culture; assay type: cell-based, Pseudomonas aeruginosa; conditions: agent alone, range over strains
Description: as §1
(§5) To determine the prevention of biofilm formation, both the bacterial inoculum and the antimicrobial agents were added simultaneously to the plates. The plates were incubated at 37° C. for 24 h and the optical density was read at 625 nm on a microtitre plate reader (BioTek Powerwave XS, Winooski, USA). The MIC was obtained as the lowest concentration of antimicrobial showing total inhibition of bacterial growth.
(§6) The FIC corresponds to an interaction coefficient indicating whether the combination of antimicrobial agents is synergistic, additive, antagonist or neutral. The FIC is determined by comparing the activity of an agent in combination (MIC of agent A+agent B) with the activity of the agent alone (MIC of agent A or agent B) as follow (Singh et al., 2000):
(§7) FIC=MICA[combination]/MICA[alone]+MICB[combination]/MICB[alone]
(§8) Additive combinations of two antimicrobial agents are indicated by a FIC index of 1, whereas a FIC index <1 indicates synergistic combinations. Neutral combinations would give a FIC between 1 and 4, a FIC index higher than 4 indicates antagonist effects between the two antimicrobial agents.
(§9) Summary of the activity of the tested antimicrobial agents against the Gram-negative P. aeruginosa strains and the Gram-positive Staphylococcus spp. The number into brackets indicates the maximum number of strains tested. MIC: minimum inhibition concentration; MBEC: minimum biofilm eradication concentration; FIC: fractional inhibitory concentration.

Staphylococcus spp (4) = assay: microbe, parasite or virus in culture; assay type: cell-based; conditions: agent alone, range over strains
Description: as §1, §5, §6, §7, §8, §9

[4] = system: P. aeruginosa strains (7) biofilm cells; assay type: cell-based, Pseudomonas aeruginosa; conditions: agent alone
Description: (§10) The FIC was also calculated to assess the interaction of two antimicrobial agents in combination against bacterial biofilms. The same formulae applied, using MBEC instead of MIC.
(§11) A total volume of 100 μl bacterial inoculum in Mueller-Hinton was added to each well of 96-well plates (challenge plates) and the plates were incubated at 37° C. for 24 h on a gyrorotary shaking platform (Grant-bio PS-3D, Shepreth, England) at 24 rpm to allow for biofilm formation.
(§12) The challenge plates were then rinsed once with sterile PBS (lx) and two-fold serial dilutions of antimicrobial agents in Mueller-Hinton were added to the challenge plates. The challenge plates were incubated at 37° C. for 24 h on a gyrorotary shaking platform (Grant-bio PS-3D, Shepreth, England) at 24 rpm.
(§13) The supernatants from each of the challenge plates were transferred into fresh plates and the optical density was measured at 625 nm on a microtitre plate reader (BioTek Powerwave XS, Winooski, USA). The MBEC was obtained by the lowest concentration of antimicrobial showing no bacterial growth.
as §9

[5] = system: Staphylococcus spp (4) biofilm cells; assay type: cell-based; conditions: agent alone; biofilm cells
Description: as §10, §11, §12, §13, §9

[6] = system: P. aeruginosa strains (7) persister cells; assay: Persister cells in biofilms (live/dead staining), summary over strains; assay type: cell-based, Pseudomonas aeruginosa; conditions: agent alone
Description: (§14) Following transfer of the supernatant from the challenge plates, the biofilms were rinsed once with sterile PBS (lx) and 100 μl of BacLight live/dead fluorescent staining solution (Invitrogen, Paisley, UK) containing 4 μM SYTO9 and 20 μM propidium iodide (PI) in sterile PBS (lx) were added to the wells of the challenge plates. The plates were incubated at room temperature in the dark for 15 min and the fluorescence was read at 485(ex)/528(em) and 485(ex)/645(em) for SYTO9 and PI fluorescence, respectively on a fluorescence microtitre plate reader (BioTek Synergy HT, Winooski, USA) with the sensitivity set at 50 and bottom optics position was selected. Direct observation of the biofilms with an Axiovert 40 fluorescence microscope (Zeiss, Gottingen, Germany) allowed identifying the presence of live and dead bacteria and pictures of the biofilms were taken at 100 to 400-fold magnification.
(§15) The relative viability of persister cells was determined by the live/dead fluorescence measurements ratio and microscopic observations were used to confirm the presence or absence of live cells.
as §9

[7] = system: Staphylococcus spp (4) persister cells; assay: as above; assay type: cell-based; conditions: agent alone; for Persisters, active concentration, Staphylococcus spp (4): persister cells
Description: as §14, §15, §9

[8] = system: P. aeruginosa ATCC BAA-47 (PAO1) biofilm cells; assay: MBEC against 24 h-old biofilm; assay type: cell-based, Pseudomonas aeruginosa
Description: as §10, §11, §12, §13
(§16) The assessment of the activity of NP108 and cysteamine against bacterial biofilms was carried out with 24 h-old biofilms and the activity of both compounds in combination was also determined. The activity of the antimicrobial agents against bacterial biofilms was determined by their activity against the biofilm cells and against the persister cells.

[9] = system: S. aureus DSM 11729 biofilm cells; assay type: cell-based, Staphylococcus aureus
Description: as §10, §11, §12, §13, §16

[10] = system: P. aeruginosa ATCC27853 biofilm cells; assay type: cell-based, Pseudomonas aeruginosa; conditions: for MBEC alone, P. aeruginosa ATCC27853: agent alone, FIG. 21a
Description: as §11, §12, §13

[11] = system: P. aeruginosa ATCC BAA-47 (PAO1) persister cells; assay: Relative viability of persister cells (SYTO9/PI live/dead fluorescence, microscopy); assay type: cell-based, Pseudomonas aeruginosa; conditions: agent alone; for activity against persister cells of P. aeruginosa ATCC BAA-47: relative viability remained significant, FIG. 12
Description: as §14, §15
The activity of NP108 and cysteamine against the persister cells was assessed using a fluorescence staining method to determine the relative viability of the cells. The nucleic acid-binding fluorescent molecules used were SYTO9 and PI, which penetrate all bacterial cells (green fluorescence) and membrane-disrupted cells (red fluorescence), respectively.

[12] = system: S. aureus DSM 11729 persister cells; assay: as above; assay type: cell-based, Staphylococcus aureus; conditions: agent alone, at low concentrations; FIG. 18
Description: as §14, §15
The activity of NP108 and cysteamine against the persister cells was assessed using a fluorescence staining method to determine the relative viability of the cells. […]

[13] = system: Gram-positive and Gram-negative persister cells; assay: Relative viability of persister cells (SYTO9/PI live/dead fluorescence); assay type: cell-based; conditions: lowest concentration tested; FIG. 10
Description: as §14, §15

[14] = system: S. aureus DSM 11729 (MRSA); conditions: data not shown; for bactericidal concentration, S. aureus DSM 11729: agent alone
[15] = system: P. aeruginosa ATCC BAA-47; conditions: data not shown; for bactericidal concentration, P. aeruginosa ATCC BAA-47: agent alone
[16] = system: S. epidermidis 12228 biofilm cells; assay: MBEC against 24 h-old biofilm; assay type: cell-based, Staphylococcus epidermidis; conditions: agent alone
Description: as §11, §12, §13, §16

[17] = system: P. aeruginosa ATCC27853 persister cells; assay: Relative viability of persister cells (SYTO9/PI live/dead fluorescence); assay type: cell-based, Pseudomonas aeruginosa; conditions: 1024 μg/ml NP341+3128 μg/ml N-acetylcysteine; FIG. 20b
Description: as §14, §15

[18] = system: methicillin-resistant S. aureus (MRSA) DSM 11729 planktonic cells; assay: Time course activity over a 48-h period against planktonic cells; assay type: cell-based, Staphylococcus aureus; conditions: 0.25 mg/ml
From the text: The range of concentrations tested as shown in the legends is in mg/ml.

[19] = agent alone, prevention of biofilm formation, 24 h

Molecule | MBEC, P. aeruginosa strains (7) [4] | MBEC, Staphylococcus spp (4) [5] | Persisters, active concentration, P. aeruginosa strains (7) [6] | Persisters, active concentration, Staphylococcus spp (4) [7] | MBEC [alone], P. aeruginosa ATCC BAA-47 biofilm cells ([8]; agent alone) | MBEC, S. aureus (MRSA) DSM 11729 biofilm cells ([9]; agent alone) | MBEC alone, P. aeruginosa ATCC27853 [10] | activity against persister cells of P. aeruginosa ATCC BAA-47 [11] | activity against persister cells of S. aureus DSM 11729 [12] | bactericidal concentration, S. aureus DSM 11729 [14] | bactericidal concentration, P. aeruginosa ATCC BAA-47 [15] | MIC, P. aeruginosa strains (7) [3] | MIC, Staphylococcus spp (4) (Staphylococcus spp (4)) | also measured
NCCS [Cysteamine, cysteamine, reference compound] | >5,000 μg/ml | >25,000 μg/ml | 500-6,250 μg/ml | 6,250-12,500 μg/ml | > 100.00 µg/mL | 250 µg/mL | more than 100 mg/ml | lack of activity | lack of activity | more than 320 μg/ml | > 320 µg/mL | – | – | MIC ([1]; Staphylococcus aureus, agent alone, prevention of biofilm formation, 24 h): > 320 mg/L; MIC ([2]; Pseudomonas aeruginosa, ATCCBAA47, agent alone, prevention of biofilm formation, 24 h): 320 mg/L; MIC ([3]; Pseudomonas aeruginosa): 300 to 2500 mg/L; MIC (Staphylococcus spp (4); Staphylococcus): 300 to 625 mg/L; MBEC cysteamine[combination], P. aeruginosa ATCC BAA-47 biofilm cells ([8]; with 250 μg/ml NP108): 62.5 µg/mL; MBEC cysteamine[combination], S. aureus DSM 11729 biofilm cells ([9]; with 31.25 μg/ml NP108): 62.5 µg/mL; concentration that suppressed the viability of Gram-positive and Gram-negative persister cells [13]: ≤ 6.25 mg/mL
N=C(N)NCCC[C@@H](N)C(=O)N[C@H](CCCNC(=N)N)C(=O)N[C@H](CCCNC(=N)N)C(=O)N[C@H](CCCNC(=N)N)C(=O)N[C@H](CCCNC(=N)N)C(=O)N[C@H](CCCNC(=N)N)C(=O)N[C@H](CCCNC(=N)N)C(=O)N[C@H](CCCNC(=N)N)C(=O)N[C@H](CCCNC(=N)N)C(=O)N[C@H](CCCNC(=N)N)C(=O)N[C@H](CCCNC(=N)N)C(=O)N[C@H](CCCNC(=N)N)C(=O)N[C@H](CCCNC(=N)N)C(N)=O [NP341, dRdRdRdRdRdRdRdRdRdRdRdRdR-CONH] | >5,000 μg/ml | – | 625 µg/mL | – | – | 625 µg/mL | more than 2 mg/ml | – | – | – | – | 31.25 mg/L | 250 mg/L | decrease of viability of persister cells of the 3 Staphylococcus species ([7]; FIG. 8): 25 to 50%; reduction of viability of biofilm cells, P. aeruginosa BAA-47 (PAO1) ([8]; agent alone, FIG. 7): 2 to 3 fold; reduction of viability of biofilm cells, MRSA 11729 ([9]; agent alone, FIG. 7): 2 to 3 fold; MBEC, S. epidermidis 12228 biofilm cells [16]: 625 µg/mL; NP341 needed to reach the MBEC in combination, P. aeruginosa ATCC27853 ([10]; in combination with 3-6 mg/ml of N-acetylcysteine, FIG. 20a): 205 µg/mL; concentration that inhibits the viability of P. aeruginosa BAA-47 (PAO1) persister cells ([11]; FIG. 6, FIG. 8): 625 µg/mL; inhibition of persister cells, P. aeruginosa ATCC27853 [17]: approximately 75%; duration of complete inhibition [18]: 48 h
poly-L-lysine, hydrobromide [NP108] | – | 125 to 250 µg/mL | – | >500 µg/mL | > 500 µg/mL | 125 µg/mL | – | lack of activity | lack of activity | 125 µg/mL | 250 µg/mL | 31.25 to 500 mg/L | 16 to 125 mg/L | MIC of NP108 in the presence of cysteamine, S. aureus DSM 11729 ([1]; 320 μg/ml cysteamine added): 15.625 mg/L; MIC, S. aureus DSM 11729 [1, 19]: 125 mg/L; MIC of NP108 in the presence of cysteamine, S. aureus DSM 11729 ([1]; in the presence of 40 μg/ml cysteamine): 31.25 mg/L; MIC, P. aeruginosa ATCC BAA-47 [2, 19]: 62.5 mg/L; MIC of NP108 in the presence of cysteamine, P. aeruginosa ATCC BAA-47 ([2]; in the presence of 160 μg/ml cysteamine): 31.25 mg/L; NP108 concentration giving complete inhibition of bacterial growth, P. aeruginosa ATCC BAA-47 biofilm cells ([8]; with 31.25 μg/ml cysteamine): 500 µg/mL; MBEC NP108[combination], P. aeruginosa ATCC BAA-47 biofilm cells ([8]; with 62.5 to 500 μg/ml cysteamine): 250 µg/mL; MBEC NP108[combination], S. aureus DSM 11729 biofilm cells ([9]; with 62.5 μg/ml cysteamine): 31.25 µg/mL; bactericidal concentration of NP108 in combination, S. aureus DSM 11729 ([14]; with ≥80 μg/ml cysteamine): 62.5 µg/mL; bactericidal concentration of NP108 in combination, S. aureus DSM 11729 ([14]; with ≥160 μg/ml cysteamine): 31.25 µg/mL; bactericidal concentration of NP108 in combination, P. aeruginosa ATCC BAA-47 ([15]; with 320 μg/ml cysteamine): 125 µg/mL
